Results published in ChEMBL document CHEMBL1201862, “PubChem BioAssay data set” (2004).
Several values for one entry are separate records, joined by “and”; a condition that tells them apart may be missing. Identical values can stand only once. Activity calls are given as the source filed them.

Experiments:
HEK293 [1] = test: cells; type: functional, cell-based; settings: Homo sapiens
HEK293 [2] = test: NOD2 signaling inhibitors in MDP-stimulated cells, cell-based, uHTS, luminescence (AID 2001); type: functional; settings: Homo sapiens
[3] = NIH:OVCAR-3 ovarian cancer cell cytotoxicity, dose response, PAX8 inhibitor project, plate reader, dry powder samples (AID 743044); type: functional, cell-based
[4] = IGROV1 ovarian cancer cell cytotoxicity, dose response, PAX8 inhibitor project, plate reader, dry powder samples (AID 743043); type: functional, cell-based; settings: IGROV-1
[5] = cytotoxicity dependent on PAX8, dose response, cell-based, plate reader, dry powder (AID 743049); type: functional
[6] = cytotoxicity in COV362 ovarian cancer cells, dose response, cytotoxicity control for PAX8 inhibitor project, cell-based, plate reader, dry powder, SA12 (AID 743144); type: functional
[7] = cytotoxicity in OVCAR4 cells, dose response, cytotoxicity control for PAX8 inhibitor project, cell-based, plate reader, dry powder, SA11 (AID 743150); type: functional; settings: OVCAR-4
HEK293 [8] = test: cells; type: functional, cell-based; settings: Homo sapiens; remark: listed apart in the source
[9] = target: Nucleotide-binding oligomerization domain-containing protein 2 (Homo sapiens, UniProt Q9HC29); test: NOD2 signaling inhibitors, cell-based, luminescence, uHTS, HEK293 (AID 1566); type: functional
[10] = Fluorescence-based cell-based high throughput dose response assay for inhibitors of the interaction of nucleotide-binding oligomerization domain containing 2 (NOD2) and the receptor-interacting serine-threonine kinase 2 (RIPK2).; type: functional; settings: Homo sapiens
[11] = cytotoxicity in OV-90 ovarian cancer cells, dose response, PAX8 inhibitor project, cell-based, plate reader, dry powder, SA8 (AID 743149); type: functional
Paired box protein Pax-8 = Paired box protein Pax-8 (Homo sapiens, UniProt Q06710); test: inhibitors of PAX8-driven TPO luciferase reporter, dose response, RMG-I cells, cherry-pick (AID 687027); type: functional, cell-based;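 note: luciferase reporter driven by Pax8 target thyroperoxidase promoter measured by SteadyGlo luminescence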
HEK293 [12] = test: cells; type: functional, cell-based; settings: Homo sapiens; remark: listed apart in the source
Beta Lactamase = Beta Lactamase (Pseudomonas aeruginosa, UniProt Q932Y6); test: beta-lactamase reporter inhibitor potency, dose response, artefact control for NOD2-RIPK2 interaction inhibitor project, BLA reporter cells, FRET fluorescence (AID 651552); type: functional, cell-based
[13] = cytotoxicity in COV434 cells, dose response, cytotoxicity control for PAX8 inhibitor project, cell-based, plate reader, dry powder, SA7 (AID 743145); type: functional
HEK293 [14] = test: NOD1 signaling inhibitors, primary screen, cell-based, luminescence, uHTS (AID 1578); type: functional; settings: Homo sapiens
Beta-galactosidase = Beta-galactosidase (Escherichia coli, UniProt Q8VNN2); test: beta-galactosidase enzyme inhibitors and activators, dose response, artefact control for CCR6 antagonist project, biochemical, E. coli enzyme, set 3 (AID 504712); type: functional
[15] = target: ATP-dependent molecular chaperone HSP82 (Candida albicans (strain WO-1) (Yeast), UniProt C4YTQ8); test: loss of DOC-induced GRE-beta-galactosidase reporter signal, dose response, Hsp90 inhibitor project, S. cerevisiae, luminescence (AID 2400); type: functional, cell-based;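 note: beta-galactosidase luminescence from glucocorticoid response element reporter as proxy for Hsp90 function; inhibitor potency where signal loss means Hsp90 inhibition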
[16] = target: Hepatocyte nuclear factor 4-alpha (Homo sapiens, UniProt P41235); type: functional, cell-based;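 note: biochemical luminescence-based dose-response counterscreen measuring inhibition of HNF4 dimerization, run alongside a screen for blockers of ABHD5–perilipin-5 interaction; split luciferase complementation of HNF4 fusion proteins in cell lysate measuring dimerization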
CAAX prenyl protease 2 [17] = target: T1, CAAX prenyl protease 2 (Saccharomyces cerevisiae S288c, UniProt Q03530); type: biochemical
T1 sequence (Q03530 whole entry): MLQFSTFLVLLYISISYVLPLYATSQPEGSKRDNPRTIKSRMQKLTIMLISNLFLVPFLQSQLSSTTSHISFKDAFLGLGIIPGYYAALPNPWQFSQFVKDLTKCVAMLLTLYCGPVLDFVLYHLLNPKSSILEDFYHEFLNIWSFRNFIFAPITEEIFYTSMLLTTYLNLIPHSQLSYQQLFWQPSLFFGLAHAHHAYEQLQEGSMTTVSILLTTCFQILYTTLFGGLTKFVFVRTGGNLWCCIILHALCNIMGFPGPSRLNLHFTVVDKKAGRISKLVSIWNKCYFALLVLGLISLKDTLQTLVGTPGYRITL

[18] = target: T2, Rac GTPase-activating protein 1 (Homo sapiens, UniProt Q9H0H5); test: MgcRacGAP GTPase-activating activity inhibitors, confirmation, biochemical, ADP Hunter fluorescence, primary and confirmatory (AID 624330); type: functional
T2 sequence (Q9H0H5 whole entry): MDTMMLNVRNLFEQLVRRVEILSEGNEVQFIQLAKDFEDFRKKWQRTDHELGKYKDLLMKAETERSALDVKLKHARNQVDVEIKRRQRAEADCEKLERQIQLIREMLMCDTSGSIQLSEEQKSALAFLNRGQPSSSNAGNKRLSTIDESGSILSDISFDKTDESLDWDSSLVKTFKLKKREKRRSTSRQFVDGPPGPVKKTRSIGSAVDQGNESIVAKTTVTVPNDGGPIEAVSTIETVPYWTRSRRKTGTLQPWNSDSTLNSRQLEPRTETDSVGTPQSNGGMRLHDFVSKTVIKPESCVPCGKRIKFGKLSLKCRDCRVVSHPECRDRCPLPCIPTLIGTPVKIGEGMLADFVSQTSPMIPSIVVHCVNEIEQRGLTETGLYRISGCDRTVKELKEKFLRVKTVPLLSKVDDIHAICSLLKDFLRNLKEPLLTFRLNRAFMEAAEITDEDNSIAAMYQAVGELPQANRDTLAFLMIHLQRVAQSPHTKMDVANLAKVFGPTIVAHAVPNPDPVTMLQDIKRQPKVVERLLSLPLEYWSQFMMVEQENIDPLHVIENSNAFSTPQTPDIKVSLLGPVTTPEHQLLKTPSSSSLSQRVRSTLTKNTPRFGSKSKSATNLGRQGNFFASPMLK

CAAX prenyl protease 2 [19] = target: CAAX prenyl protease 2 (Homo sapiens, UniProt Q9Y256); test: human Rce1 protease inhibitors, dose response, biochemical, yeast membranes, quenched-peptide fluorescence, cherry-pick (AID 588849)
Melanocortin receptor 4 = Melanocortin receptor 4 (Homo sapiens, UniProt P32245); test: MC4R antagonist potency on cAMP, dose response, cell-based, TR-FRET, biased antagonists (AID 602298); type: functional;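 note: antagonist potency against agonist-stimulated cAMP production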
[20] = target: T3, DNA repair protein RAD52 homolog (Homo sapiens, UniProt P43351); type: functional, biochemical
T3 sequence (P43351 whole entry): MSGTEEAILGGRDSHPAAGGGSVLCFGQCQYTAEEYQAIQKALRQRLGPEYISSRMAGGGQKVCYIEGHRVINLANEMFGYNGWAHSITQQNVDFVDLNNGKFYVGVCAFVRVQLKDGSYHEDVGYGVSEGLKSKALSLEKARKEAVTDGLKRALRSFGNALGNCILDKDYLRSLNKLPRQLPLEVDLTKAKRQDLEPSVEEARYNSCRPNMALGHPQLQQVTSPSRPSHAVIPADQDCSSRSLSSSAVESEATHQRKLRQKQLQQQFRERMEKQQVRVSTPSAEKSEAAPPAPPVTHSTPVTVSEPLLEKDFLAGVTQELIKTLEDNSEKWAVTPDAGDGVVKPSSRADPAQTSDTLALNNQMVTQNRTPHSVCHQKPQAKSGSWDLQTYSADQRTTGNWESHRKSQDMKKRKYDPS

[21] = ARNT/TACC3 interaction disruptors, potency, confirmation, biochemical, AlphaScreen, cherry-picked samples (AID 651703); type: functional, Homo sapiens;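 note: His-tagged ARNT PAS-B domain paired with GST-TACC3 E629A dimer coactivator fragment; potency of inhibitors that break up the complex and lower AlphaScreen signal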
[22] = target: T4, Sentrin-specific protease 8 (Homo sapiens, UniProt Q96LD8); type: functional
T4 sequence (Q96LD8 whole entry): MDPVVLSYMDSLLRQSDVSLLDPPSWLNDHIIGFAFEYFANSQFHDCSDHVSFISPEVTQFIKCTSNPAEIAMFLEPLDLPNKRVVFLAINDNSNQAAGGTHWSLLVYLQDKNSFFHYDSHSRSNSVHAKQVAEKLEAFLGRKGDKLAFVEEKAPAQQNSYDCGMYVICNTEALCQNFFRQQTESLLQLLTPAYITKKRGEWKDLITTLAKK

[23] = target: T4, Sentrin-specific protease 8; type: functional; remark: listed apart in the source
[24] = target: Aryl hydrocarbon receptor (Homo sapiens, UniProt P35869); settings: Potency;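 note: confirmatory quantitative high-throughput screen measuring activation of the AhR signaling pathway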
[25] = HepG2 cell cytotoxicity, dose response, cytotoxicity control for Shn3 inhibitor project, CellTiter-Glo, cherry-picked (AID 624134); type: functional, cell-based
[26] = control 3'UTR Renilla luciferase suppression, dose response, counter-screen for Shn3 inhibitor project, cell-based, Clone20-Shn3RL, cherry-picked (AID 624133); type: functional
Protein Wnt-3a = Protein Wnt-3a (Mus musculus, UniProt P27467); test: Wnt3a-driven reporter signaling inhibition, dose response, selectivity assay for Gli-SUFU antagonist project, Wnt-LIGHT cells, luminescence (AID 651570); type: functional; settings: read-out: IC50_Mean;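 note: Wnt-LIGHT reporter cells stimulated with conditioned medium from Wnt3a-producing cells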
[27] = Shn3 3'UTR reporter inhibitors, dose response, cell-based, Clone20 osteoblasts, firefly luciferase, cherry-picked (AID 624132); type: functional;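 note: firefly luciferase luminescence from reporter carrying the Shn3 3'UTR in osteoblasts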
[28] = target: DNA (cytosine-5)-methyltransferase 1 (Homo sapiens, UniProt P26358); test: DNMT1 methyltransferase inhibitors, confirmation, biochemical, fluorescent molecular beacon (AID 602386); type: functional
[29] = inhibitors of SNCA 5'UTR-driven reporter translation, confirmation, H4 neuroglioma cells, luminescence (AID 1988); type: functional, cell-based
[30] = Luminescence Cell-Based Dose Response HTS to Identify Inhibitors of 5'UTR Stem-Loop Driven Prion Protein mRNA Translation in H4 Neuroglioblastoma Cells. [Related pubchem assays: 1827 (Project Summary), 1813 (Primary HTS)]; type: functional

Sequence of ATP-dependent molecular chaperone HSP82 (C4YTQ8 whole entry, the tested form may be a part): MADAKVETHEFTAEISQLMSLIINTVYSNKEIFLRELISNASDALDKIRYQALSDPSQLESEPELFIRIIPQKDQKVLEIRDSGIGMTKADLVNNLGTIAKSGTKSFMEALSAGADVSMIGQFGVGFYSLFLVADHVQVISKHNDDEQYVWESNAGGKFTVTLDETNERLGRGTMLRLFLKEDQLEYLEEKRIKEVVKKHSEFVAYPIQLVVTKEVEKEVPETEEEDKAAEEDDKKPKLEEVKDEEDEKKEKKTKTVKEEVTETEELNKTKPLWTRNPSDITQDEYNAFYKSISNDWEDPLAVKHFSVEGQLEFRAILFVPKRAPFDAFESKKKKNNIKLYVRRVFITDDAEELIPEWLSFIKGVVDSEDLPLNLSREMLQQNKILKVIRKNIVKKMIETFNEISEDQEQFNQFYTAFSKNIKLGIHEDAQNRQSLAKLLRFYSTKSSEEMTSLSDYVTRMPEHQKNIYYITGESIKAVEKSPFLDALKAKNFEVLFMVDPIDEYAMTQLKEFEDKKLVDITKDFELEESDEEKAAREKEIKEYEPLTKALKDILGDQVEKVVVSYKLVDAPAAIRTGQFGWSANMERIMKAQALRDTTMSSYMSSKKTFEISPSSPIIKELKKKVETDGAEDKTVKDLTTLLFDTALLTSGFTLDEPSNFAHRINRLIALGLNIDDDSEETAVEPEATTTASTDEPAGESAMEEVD
Sequence of CAAX prenyl protease 2 (Homo sapiens, UniProt Q9Y256) (Q9Y256 whole entry): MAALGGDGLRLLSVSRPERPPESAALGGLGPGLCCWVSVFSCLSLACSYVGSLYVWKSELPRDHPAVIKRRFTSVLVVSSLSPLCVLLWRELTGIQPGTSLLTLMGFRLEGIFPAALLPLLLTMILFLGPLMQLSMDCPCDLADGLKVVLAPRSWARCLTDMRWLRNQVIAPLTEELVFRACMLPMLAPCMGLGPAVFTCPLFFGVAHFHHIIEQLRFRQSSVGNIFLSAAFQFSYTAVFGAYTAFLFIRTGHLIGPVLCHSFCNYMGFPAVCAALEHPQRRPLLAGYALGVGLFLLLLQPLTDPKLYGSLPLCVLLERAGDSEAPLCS
Sequence of Beta-galactosidase (Q8VNN2 whole entry): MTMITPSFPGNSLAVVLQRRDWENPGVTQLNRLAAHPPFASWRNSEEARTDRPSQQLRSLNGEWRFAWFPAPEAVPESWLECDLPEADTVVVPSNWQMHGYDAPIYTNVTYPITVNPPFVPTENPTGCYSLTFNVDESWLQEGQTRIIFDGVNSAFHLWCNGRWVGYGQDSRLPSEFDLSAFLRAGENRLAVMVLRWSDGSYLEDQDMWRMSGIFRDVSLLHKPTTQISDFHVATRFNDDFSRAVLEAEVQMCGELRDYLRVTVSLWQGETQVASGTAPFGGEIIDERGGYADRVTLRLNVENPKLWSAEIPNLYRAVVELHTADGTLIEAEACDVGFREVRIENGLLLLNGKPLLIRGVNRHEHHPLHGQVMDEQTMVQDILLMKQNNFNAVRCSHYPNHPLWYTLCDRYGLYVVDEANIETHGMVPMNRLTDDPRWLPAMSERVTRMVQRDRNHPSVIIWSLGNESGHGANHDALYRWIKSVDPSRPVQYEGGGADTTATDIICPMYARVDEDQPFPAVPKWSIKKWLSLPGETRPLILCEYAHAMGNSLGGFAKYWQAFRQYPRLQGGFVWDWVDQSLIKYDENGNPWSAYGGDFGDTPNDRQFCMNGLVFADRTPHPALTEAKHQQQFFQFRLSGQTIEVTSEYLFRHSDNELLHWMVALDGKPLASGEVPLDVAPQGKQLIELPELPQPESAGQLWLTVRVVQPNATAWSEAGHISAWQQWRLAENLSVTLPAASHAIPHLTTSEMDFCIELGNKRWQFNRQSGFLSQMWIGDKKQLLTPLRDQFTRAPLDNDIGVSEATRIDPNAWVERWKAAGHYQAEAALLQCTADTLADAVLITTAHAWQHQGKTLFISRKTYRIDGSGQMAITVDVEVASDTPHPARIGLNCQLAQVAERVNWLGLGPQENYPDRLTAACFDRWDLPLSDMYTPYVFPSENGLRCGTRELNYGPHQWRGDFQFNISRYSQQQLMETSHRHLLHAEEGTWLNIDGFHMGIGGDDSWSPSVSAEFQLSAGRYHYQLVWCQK
Sequence of Melanocortin receptor 4 (P32245 whole entry): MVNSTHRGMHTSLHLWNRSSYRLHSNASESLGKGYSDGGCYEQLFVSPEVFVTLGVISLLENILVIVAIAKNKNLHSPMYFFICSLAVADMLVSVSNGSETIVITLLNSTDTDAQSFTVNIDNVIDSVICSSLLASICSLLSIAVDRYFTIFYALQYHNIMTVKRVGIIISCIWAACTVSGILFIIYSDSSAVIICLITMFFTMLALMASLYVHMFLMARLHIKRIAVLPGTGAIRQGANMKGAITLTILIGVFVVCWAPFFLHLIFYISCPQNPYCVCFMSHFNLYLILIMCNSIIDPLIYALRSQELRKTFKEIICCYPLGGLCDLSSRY
Sequence of DNA (cytosine-5)-methyltransferase 1 (P26358 whole entry): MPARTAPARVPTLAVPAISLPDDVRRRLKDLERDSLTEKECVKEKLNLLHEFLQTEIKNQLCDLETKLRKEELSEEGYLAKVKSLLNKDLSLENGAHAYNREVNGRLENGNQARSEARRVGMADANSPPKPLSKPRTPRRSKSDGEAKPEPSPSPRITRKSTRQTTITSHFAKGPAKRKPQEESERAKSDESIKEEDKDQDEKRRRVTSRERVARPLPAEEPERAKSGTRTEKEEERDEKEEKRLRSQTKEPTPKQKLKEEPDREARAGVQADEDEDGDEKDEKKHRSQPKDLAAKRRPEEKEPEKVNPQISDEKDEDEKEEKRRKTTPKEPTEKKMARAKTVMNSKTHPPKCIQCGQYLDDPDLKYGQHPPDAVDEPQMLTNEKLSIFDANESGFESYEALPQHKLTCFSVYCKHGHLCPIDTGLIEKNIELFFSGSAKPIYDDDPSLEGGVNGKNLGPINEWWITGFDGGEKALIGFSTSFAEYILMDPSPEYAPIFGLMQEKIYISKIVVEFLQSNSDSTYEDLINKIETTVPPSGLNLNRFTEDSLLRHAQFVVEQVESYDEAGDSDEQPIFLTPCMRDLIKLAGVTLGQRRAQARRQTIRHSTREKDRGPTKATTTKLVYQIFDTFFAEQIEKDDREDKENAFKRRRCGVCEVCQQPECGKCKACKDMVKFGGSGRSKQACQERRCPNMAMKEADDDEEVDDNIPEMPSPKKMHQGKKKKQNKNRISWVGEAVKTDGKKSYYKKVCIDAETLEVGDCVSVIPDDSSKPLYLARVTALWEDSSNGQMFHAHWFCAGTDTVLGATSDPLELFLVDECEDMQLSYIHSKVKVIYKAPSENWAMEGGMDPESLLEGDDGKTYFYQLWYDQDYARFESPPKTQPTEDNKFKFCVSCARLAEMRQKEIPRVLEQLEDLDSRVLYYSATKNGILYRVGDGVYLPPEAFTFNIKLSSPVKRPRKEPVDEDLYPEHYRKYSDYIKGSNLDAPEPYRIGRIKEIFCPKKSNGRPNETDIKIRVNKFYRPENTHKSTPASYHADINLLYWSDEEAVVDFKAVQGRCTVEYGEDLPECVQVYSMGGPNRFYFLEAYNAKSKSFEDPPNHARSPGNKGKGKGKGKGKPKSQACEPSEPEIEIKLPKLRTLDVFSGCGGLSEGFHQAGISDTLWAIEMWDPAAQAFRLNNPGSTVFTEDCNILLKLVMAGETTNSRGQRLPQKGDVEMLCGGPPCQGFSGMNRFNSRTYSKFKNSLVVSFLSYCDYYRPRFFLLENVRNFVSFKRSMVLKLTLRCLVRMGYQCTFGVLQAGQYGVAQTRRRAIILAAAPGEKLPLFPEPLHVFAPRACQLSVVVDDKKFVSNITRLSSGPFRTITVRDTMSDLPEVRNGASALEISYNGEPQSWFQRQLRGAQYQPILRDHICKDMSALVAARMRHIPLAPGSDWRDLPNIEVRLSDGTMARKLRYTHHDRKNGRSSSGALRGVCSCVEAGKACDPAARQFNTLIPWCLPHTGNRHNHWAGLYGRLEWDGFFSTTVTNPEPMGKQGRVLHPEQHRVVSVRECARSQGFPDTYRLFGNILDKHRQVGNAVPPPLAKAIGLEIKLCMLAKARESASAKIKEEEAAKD
Sequence of Nucleotide-binding oligomerization domain-containing protein 2 (Q9HC29 whole entry, the tested form may be a part): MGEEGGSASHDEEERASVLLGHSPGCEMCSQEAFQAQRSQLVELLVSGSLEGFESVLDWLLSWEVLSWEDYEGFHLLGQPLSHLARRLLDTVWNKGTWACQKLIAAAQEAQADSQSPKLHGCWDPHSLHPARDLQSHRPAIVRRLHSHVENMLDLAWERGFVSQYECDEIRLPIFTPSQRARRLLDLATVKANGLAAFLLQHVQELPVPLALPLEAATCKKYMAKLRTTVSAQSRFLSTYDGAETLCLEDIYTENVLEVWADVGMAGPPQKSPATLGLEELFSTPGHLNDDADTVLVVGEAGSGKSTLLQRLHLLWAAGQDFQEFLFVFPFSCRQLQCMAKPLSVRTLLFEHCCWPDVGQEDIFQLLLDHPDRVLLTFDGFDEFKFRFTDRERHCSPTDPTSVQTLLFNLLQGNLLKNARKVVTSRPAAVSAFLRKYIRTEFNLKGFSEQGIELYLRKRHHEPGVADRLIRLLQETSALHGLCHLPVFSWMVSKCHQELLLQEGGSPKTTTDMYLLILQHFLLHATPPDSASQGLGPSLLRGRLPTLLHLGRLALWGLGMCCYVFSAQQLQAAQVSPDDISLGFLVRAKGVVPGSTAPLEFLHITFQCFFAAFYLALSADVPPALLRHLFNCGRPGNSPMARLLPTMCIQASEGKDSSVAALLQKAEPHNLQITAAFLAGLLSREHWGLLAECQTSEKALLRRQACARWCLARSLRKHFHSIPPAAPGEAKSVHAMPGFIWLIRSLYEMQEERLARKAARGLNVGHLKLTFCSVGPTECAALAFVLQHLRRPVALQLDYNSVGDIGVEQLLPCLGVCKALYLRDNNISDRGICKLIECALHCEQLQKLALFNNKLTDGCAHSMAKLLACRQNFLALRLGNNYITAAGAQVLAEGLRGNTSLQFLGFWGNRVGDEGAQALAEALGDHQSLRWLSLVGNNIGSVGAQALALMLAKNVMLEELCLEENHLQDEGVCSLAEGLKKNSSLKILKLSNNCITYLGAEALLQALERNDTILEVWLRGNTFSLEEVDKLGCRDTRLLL

Compound: COc1cccc2sc(N(CCCN(C)C)C(=O)CCS(=O)(=O)c3ccccc3)nc12
- IC50 (HEK293 [1]): 5.96 µM (active)
- IC50 (HEK293 [2]): 6.06 µM (active)
- AC50 [3]: 10 µM (active)
- AC50 [4]: 28.7 µM (active)
- AC50 [5]: 8.54 µM (active)
- AC50 [6]: 13.9 µM (active)
- AC50 [7]: 22.1 µM (active)
- IC50 (HEK293 [8]): > 20 µM (inactive)
- EC50 [9]: > 20 µM (inactive)
- IC50 [10]: 4.68 µM (active)
- AC50 [11]: 43.1 µM (active)
- AC50 (Paired box protein Pax-8): 7.04 µM (active)
- IC50 (HEK293 [12]): > 20 µM (inactive)
- IC50 (Beta Lactamase): 17.2 µM (inactive)
- AC50 [13]: 12.9 µM (active)
- EC50 (HEK293 [14]): 8.24 µM (active)
- IC50 (Beta-galactosidase): > 66.6 µM (inactive)

Compound: [H]/N=C(\N/C(=N/[H])NCCCCCCNC(=N)NC(=N)Nc1ccc(Cl)cc1)Nc1ccc(Cl)cc1
- EC50 [15]: 19.8 µM (active) and > 160 µM (inactive)
- IC50 [16]: 21.4 µM (inactive)
- AC50 (CAAX prenyl protease 2 [17]): 23.1 µM (active)
- IC50 [18]: 42.3 µM (active)
- AC50 (CAAX prenyl protease 2 [19]): 12.9 µM (active)
- IC50 (Melanocortin receptor 4): 1.55 µM (active)
- AC50 [20]: 17.4 µM (active)

Compound: Cc1ccoc1C(=O)NCCCNC(=O)c1occc1C
- AC50 [21]: 84.7 µM (active)
- IC50 [22]: 12.7 µM (active)
- IC50 [23]: 8.27 µM (active)

Compound: Nc1ccc(N)c(Cl)c1
- AC50 [24]: 31.6 µM (inconclusive)

Compound: COCCOc1nc2c(c(=O)n(C)c(=O)n2C)n1Cc1cccc(OC)c1
- AC50 [25]: 59.9 µM (active)
- AC50 [26]: 4.09 µM (active)
- IC50 (Protein Wnt-3a): 6.29 µM (active)
- AC50 [27]: 2.23 µM (active)

Compound: CC1(C)CC(N=c2cc(-c3ccccc3)oc3ccc(Cl)cc23)CC(C)(C)N1
- IC50 [28]: > 99 µM (inactive)
- AC50 [20]: 0.689 µM (active)
- EC50 [29]: > 60 µM (not active)
- EC50 [30]: > 120 µM (not active)
